Assay results taken from patent publication US9527857B2, “HSPC-sparing treatments for RB-positive abnormal cellular proliferation” (G1 Therapeutics, Inc., priority 2013, dated 2016).

What was measured:
CDK4/CyclinD1 = CDK4/CyclinD1 (Homo sapiens (Human), UniProt P11802); assay: CDK4/cyclinD1 kinase assay (Nanosyn, microfluidic Caliper platform); assay type: biochemical; conditions: Table 3; read-out: CDK4/CycD1 IC50
Procedure: Selected compounds disclosed herein were tested in CDK4/cyclinD1, CDK2/CycA and CDK2/cyclinE kinase assays by Nanosyn (Santa Clara, Calif.) to determine their inhibitory effect on these CDKs. The assays were performed using microfluidic kinase detection technology (Caliper Assay Platform). The compounds were tested in 12-point dose-response format in singlicate at Km for ATP. Phosphoacceptor substrate peptide concentration used was 1 μM for all assays and Staurosporine was used as the reference compound for all assays. Specifics of each assay are as described below:
CDK4/CyclinD1: Enzyme concentration: 1 nM; ATP concentration: 200 μM; Incubation time: 10 hr.

CDK6/CycD3 = CDK6/CycD3 (Homo sapiens (Human), UniProt Q00534); assay: CDK6/CycD3 kinase assay; assay type: biochemical
[1] = system: MCF7 (breast adenocarcinoma, Rb-positive); assay: Cellular proliferation assay (CellTiter-Glo), MCF7; assay type: cell-based
Procedure: The MCF7 cells were seeded in Costar (Tewksbury, Mass.) 3903 96 well tissue culture treated white walled/clear bottom plates. A nine point dose response dilution series from 10 uM to 1 nM was performed and cell viability was determined after six days of compound treatment as indicated using the CellTiter-Glo® luminescent cell viability assay (CTG; Promega, Madison, Wis., United States of America) following the manufacturer's recommendations. Plates were read on a BioTek (Winooski, Vt.) Syngergy2 multi-mode plate reader. The Relative Light Units (RLU) were plotted as a result of variable molar concentration and data was analyzed using Graphpad (LaJolla, Calif.) Prism 5 statistical software to determine the EC50 for each compound.
(§1) Cellular proliferation assays were conducted using the following cancer cell lines: MCF7 (breast adenocarcinoma—Rb-positive), ZR-75-1 (breast ductal carcinoma—Rb-positive), H69 (human small cell lung cancer—Rb-negative) cells, or A2058 (human metastatic melanoma cells—Rb-negative). These cells were seeded in Costar (Tewksbury, Mass.) […] 96 well tissue culture treated white walled/clear bottom plates. Cells were treated with the compounds of Table 1 as nine point dose response dilution series from 10 uM to 1 nM. Cells were exposed to compounds and then cell viability was determined after either four (H69) or six (MCF7, ZR75-1, A2058) days as indicated using the CellTiter-Glo® luminescent cell viability assay (CTG; Promega, Madison, Wis., United States of America) following the manufacturer's recommendations. Plates were read on BioTek (Winooski, Vt.) Syngergy2 multi-mode plate reader. The Relative Light Units (RLU) were plotted as a result of variable molar concentration and data was analyzed using Graphpad (LaJolla, Calif.) Prism 5 statistical software to determine the EC50 for each compound.

[2] = system: ZR-75-1 (breast ductal carcinoma, Rb-positive); assay: Cellular proliferation assay (CellTiter-Glo), ZR-75-1; assay type: cell-based
Procedure: as §1

[3] = Mouse pharmacokinetics (oral gavage / intravenous); assay type: in vivo, mice; conditions: plasma, 30 mg/kg, read-out: F (oral bioavailability)
Procedure: Blood samples were taken at 0, 0.25, 0.5, 1.0, 2.0, 4.0, and 8.0 hours post dosing and the plasma concentrations were determined by HPLC.

HSPCs (LKS+) [4] = assay: Bone marrow HSPC proliferation by EdU incorporation and flow cytometry; assay type: in vivo; conditions: 150 mg/kg oral gavage, mice
Procedure: . JCNI 2012; 104(6):476-487 (FIG. 2A). […].
Mice were then sacrificed at the indicated times (0, 12, 24, 36, or 48 hours following compound administration), and bone marrow was harvested (n=3 mice per time point), as previously described (Johnson et al. J. Clin. Invest. (2010) 120(7), 2528-2536). Four hours before the bone marrow was harvested, mice were treated with 100 μg of EdU by intraperitoneal injection (Invitrogen). Bone marrow mononuclear cells were harvested and immunophenotyped using previously described methods and percent EdU positive cells were then determined (Johnson et al. J. Clin. Invest. (2010) 120(7), 2528-2536). In brief, HSPCs were identified by expression of lineage markers (Lin−), Sca1 (S+), and c-Kit (K+).
Four hours before animals were sacrificed and the bone marrow was harvested, mice were treated with 100 μg of EdU by intraperitoneal injection. Three mice per group were sacrificed at 12 hours and the remaining three animals per group were sacrificed at 24 hours. Results are shown in FIG. 5A as the ratio of EdU positive cells for treated animals at 12 or 24 hour time points compared to control.
Further experiments were completed with Compound T examining dose response and longer periods of compound treatment. […] […].
Both compounds were administered at 150 mg/kg by oral gavage. One hour prior to harvesting bone marrow, EdU was IP injected to label cycling cells. Bone marrow was harvested at 12, 24, 36, and 48 hours after compound treatment and the percentage of EdU positive HSPC cells was determined at each time point.

[5] = system: MMTV-c-neu (Rb-positive) tumors; assay: MMTV-c-neu HER2-driven (Rb-positive) luminal breast cancer mouse model; assay type: in vivo, mice
Text: A HER2-driven model (Rb-positive) of breast cancer (Muller W J, Sinn E, Pattengale P K, Wallace R, Leder P. Single-step induction of mammary adenocarcinoma in transgenic mice bearing the activated c-neu oncogene. Cell 1988; 54: 105-15), that expresses c-neu (the mouse ortholog of human HER2) driven by the MMTV promoter was used in the following example. This model was chosen because previous studies in murine (Yu Q, Geng Y, Sicinski P. Specific protection against breast cancers by cyclin D1 ablation. Nature 2001; 411: 1017-21; Landis M W, Pawlyk B S, Li T, Sicinski P, Hinds P W. Cyclin D1-dependent kinase activity in murine development and mammary tumorigenesis. Cancer Cell 2006; 9: 13-22; Reddy H K, Mettus R V, Rane S G, Grana X, Litvin J, Reddy E P. Cyclin-dependent kinase 4 expression is essential for neu-induced breast tumorigenesis. Cancer Res 2005; 65: 10174-8; Yu Q, Sicinska E, Geng Y, Ahnstrom M, Zagozdzon A, Kong Y, et al. Requirement for CDK4 kinase function in breast cancer. Cancer Cell 2006; 9: 23-32.) and human HER2-positive breast cancer (An H X, Beckmann M W, Reifenberger G, Bender H G, Niederacher D. Gene amplification and overexpression of CDK4 in sporadic breast carcinomas is associated with high tumor cell proliferation. Am J Pathol 1999; 154: 113-8; Samady L, Dennis J, Budhram-Mahadeo V, Latchman DS. Activation of CDK4 gene expression in human breast cancer cells by the Brn-3b POU family transcription factor. Cancer Biol Ther 2004; 3: 317-23; Takano Y, Takenaka H, Kato Y, Masuda M, Mikami T, Saegusa M, et al. Cyclin D1 overexpression in invasive breast cancers: correlation with cyclin-dependent kinase 4 and oestrogen receptor overexpression, and lack of correlation with mitotic activity.
MMTV-neu mice were generated and observed post-lactation, with tumors observed with a median latency of approximately 25 weeks. Mice were enrolled in therapy studies when tumors reached a standard size (50-60 mm3) that permitted easy serial assessment. […] Tumor volumes were calculated by the formula, Volume=[(width)^2×length]/2. Tumor-bearing mice were euthanized at the indicated times due to predefined morbidity, tumor ulceration, or a tumor size of more than 1.5 cm in diameter.
Tumors were serially assessed weekly using caliper measurements. Therapeutic intervention began once tumors reached 40-64 mm^3. Tumor volume was calculated using the formula […]. All three compounds were administered orally via medicated diets (100 mg/kg/d). Medicated diets were administered for 28 consecutive days and then stopped. RECIST criteria were used to assess objective response rates.

[6] = system: HS68 cells (human fibroblast, Rb-positive); assay: Cellular wash-out experiment, HS68 cells; assay type: cell-based; conditions: in vitro wash-out experiment
Procedure: […]. On day 3, one set of treated cell samples were harvested in triplicate (0 Hour sample). Remaining cells were washed two times in PBS-CMF and returned to culture media lacking test compound. Sets of samples were harvested in triplicate at 24, 40, and 48 hours.
(§2) Upon harvesting cells, samples were stained with propidium iodide staining solution and samples run on Dako Cyan Flow Cytometer. The fraction of cells in G0-G1 DNA cell cycle versus the fraction in S-phase DNA cell cycle was determined using FlowJo 7.2 0.2 analysis.

[7] = system: human renal proximal tubule epithelial cells (Rb-positive); assay: Cellular wash-out experiment, renal proximal tubule epithelial cells; assay type: cell-based; conditions: 300 nM
Procedure: Alternatively, the same experiment was done using normal Renal Proximal Tubule Epithelial Cells (Rb-positive) obtained from American Type Culture Collection (ATCC, Manassas, Va.). Cells were grown in an incubator at 37° C. in a humidified atmosphere of 5% CO2 in Renal Epithelial Cell Basal Media (ATCC) supplemented with Renal Epithelial Cell Growth Kit (ATCC) in 37° C. humidified incubator.
as §2

[8] = PD0332991 pharmacokinetics and HSPC arrest in humans; assay type: in vivo; conditions: single administration
Procedure: When calculated half-life was longer than the duration of the experiment, the half-life was expressed as >the longest incubation time. The calculated half-life is also listed in parentheses. […] The timely resumption of cellular proliferation is necessary for tissue repair, and therefore an overly long period of arrest is undesirable in healthy cells such as HSPCs. The characteristics of a CDK4/6 inhibitor that dictate its arresting duration are its pharmacokinetic (PK) and enzymatic half-lives. Once initiated, a G1-arrest in vivo will be maintained as long as circulating compound remains at an inhibitory level, and as long as the compound engages the enzyme. […] These observations may explain the severe granulocytopenia seen with PD0332991 in the clinic.

HSPCs (LKS+) [9] = conditions: single oral dose 150 mg/kg, mice; Roberts et al.; cited from earlier work
[10] = system: myeloid progenitor cells (LKS-); conditions: single oral dose 150 mg/kg, mice; Roberts et al.; cited from earlier work
[11] = Schwartz et al. (2011); cited from earlier work

CDK6/CycD3, sequence (Q00534 whole entry, species assumed): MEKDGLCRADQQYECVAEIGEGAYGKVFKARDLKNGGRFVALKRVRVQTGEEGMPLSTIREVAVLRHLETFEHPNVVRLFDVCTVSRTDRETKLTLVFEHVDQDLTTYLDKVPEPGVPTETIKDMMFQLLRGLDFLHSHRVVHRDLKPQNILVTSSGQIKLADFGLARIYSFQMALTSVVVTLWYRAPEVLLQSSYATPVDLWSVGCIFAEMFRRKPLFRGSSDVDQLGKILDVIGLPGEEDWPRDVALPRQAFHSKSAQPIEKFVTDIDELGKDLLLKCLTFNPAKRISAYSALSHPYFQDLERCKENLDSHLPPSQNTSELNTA
CDK6/CycD3, sequence (P30281 whole entry partner, species assumed): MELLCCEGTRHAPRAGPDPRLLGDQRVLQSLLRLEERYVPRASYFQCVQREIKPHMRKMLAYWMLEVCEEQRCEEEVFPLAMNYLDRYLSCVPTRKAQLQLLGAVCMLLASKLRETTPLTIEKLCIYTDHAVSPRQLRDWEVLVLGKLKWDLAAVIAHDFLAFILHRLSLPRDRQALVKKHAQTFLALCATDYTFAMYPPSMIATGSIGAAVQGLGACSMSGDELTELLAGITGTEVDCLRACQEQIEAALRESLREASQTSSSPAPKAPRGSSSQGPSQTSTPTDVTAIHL
CDK4/CyclinD1, sequence (P11802 whole entry, species assumed): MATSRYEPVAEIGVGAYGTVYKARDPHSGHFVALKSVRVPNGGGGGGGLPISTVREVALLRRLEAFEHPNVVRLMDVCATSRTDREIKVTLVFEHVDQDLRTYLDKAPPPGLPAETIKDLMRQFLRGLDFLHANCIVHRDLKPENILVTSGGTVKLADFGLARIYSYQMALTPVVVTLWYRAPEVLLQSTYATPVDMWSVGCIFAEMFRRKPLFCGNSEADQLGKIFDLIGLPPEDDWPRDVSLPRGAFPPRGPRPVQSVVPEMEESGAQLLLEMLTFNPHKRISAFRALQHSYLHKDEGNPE
CDK4/CyclinD1, sequence (P24385 whole entry partner, species assumed): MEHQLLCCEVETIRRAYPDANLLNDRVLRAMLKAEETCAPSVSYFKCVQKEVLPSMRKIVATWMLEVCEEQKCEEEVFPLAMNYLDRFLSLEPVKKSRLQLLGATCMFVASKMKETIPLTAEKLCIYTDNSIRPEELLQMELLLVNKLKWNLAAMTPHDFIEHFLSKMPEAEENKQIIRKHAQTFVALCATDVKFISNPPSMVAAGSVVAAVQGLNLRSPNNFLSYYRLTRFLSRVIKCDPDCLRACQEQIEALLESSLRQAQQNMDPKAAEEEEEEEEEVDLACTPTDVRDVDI

SMILES | IC50 (CDK4/CyclinD1) [nM] | IC50 (CDK6/CycD3) [nM] | inhibition of cellular proliferation of MCF-7 cells (FIGS. 21-24) [1] | inhibition of cellular proliferation of ZR75-1 cells (FIGS. 25-28) [2] | bioavailability [3] [%] | EdU incorporation into HSPCs at 12 and 24 hours (FIG. 5A) (HSPCs (LKS+) [4]) | tumor volume during a 28 day course of therapy ([5]; 100 mg/kg/d in chow) | objective response rate ([5]; 100 mg/kg/day medicated diet, 28 days, RECIST criteria) [%] | duration of cell cycle arrest after compound is removed from the cell culture media [6] | return to baseline levels of cell division after wash out compared to compounds T, Q, GG, or U [7] | duration of cell cycle arrest of HSPC in humans [8] | duration of sustained reduction in HSPC EdU incorporation (FIG. 2) (HSPCs (LKS+) [9]) | time post oral dosing at which HSPC return to baseline cell division (FIG. 2) (HSPCs (LKS+) [9]) [h] | duration of sustained reduction in myeloid progenitor cell EdU incorporation (FIG. 2) [10] | time post oral dosing at which myeloid progenitor cells return to baseline cell division (FIG. 2) [10] [h] | PK half-life in humans [11] [h]
CC(C)N1CCN(c2ccc(Nc3ncc4cc5n(c4n3)C3(CCCCC3)CNC5=O)nc2)CC1 [GG] | 0.7 to 1 | 5 to 6 | significant inhibition of cellular proliferation | significant inhibition of cellular proliferation | 52 | reduction in EdU incorporation at 12 hours which was starting to return to normal at 24 hours | marked decrease in tumor volume | 85 | – | – | – | – | – | – | – | –
CC(=O)c1c(C)c2cnc(Nc3ccc(N4CCNCC4)cn3)nc2n(C2CCCC2)c1=O [PD0332991, 6-acetyl-8-cyclopentyl-5-methyl-2-(5-piperazin-1-yl-pyridin-2-ylammino)-8H-pyrido-[2,3-d]-pyrimidin-7-one] | – | – | significant inhibition of cellular proliferation | significant inhibition of cellular proliferation | – | – | – | – | more than forty hours | took significantly longer to return to baseline levels of cell division | approximately one week | greater than 36 hours | 48 | greater than 36 hours | 48 | 27
